The results in this text go back to patent publication US20230085307A1, “PYRIDAZINONE COMPOUND AND HERBICIDE” (NISSAN CHEMICAL CORPORATION, priority 2019, published 2023).

The subject of one test is southern crabgrass. The test is described as follows: Test Example 5: herbicidal effect by foliage application, plastic box (Table 20, symbol F). The conditions noted are these: foliage application after 14-day growth, evaluated three weeks after application. The class given is in vivo, southern crabgrass (Digitaria ciliaris). The gist of the method: (§1)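 Sow seeds spot-wise in sterilized diluvial soil; cover with ~1.5 cm soil. Grow 14 days in greenhouse, 25° C. to 30° C. Spray foliage with emulsion diluted to predetermined amount. Rate effect after 3 weeks.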

Test [1] relates to barnyard grass. The test is described as follows: Test Example 3: herbicidal effect by foliage application, Wagner pot (Table 18, symbol H). The class given is in vivo, barnyard grass (Echinochloa crus-galli). The conditions noted are these: 320 g/ha. The gist of the method:
(§2)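 Plants were sown in alluvial soil held under 0.1–0.5 cm standing water and grown 14 days in a greenhouse at 25–30 °C. An emulsifiable formulation, water-diluted to the set dose, was then sprayed onto the foliage, and effects were scored three weeks later using previously defined criteria.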

A further test deals with persian speedwell. The test is described as follows: Test Example 5: herbicidal effect by foliage application, plastic box (Table 20, symbol R). The class given is in vivo, Persian speedwell (Veronica persica). The conditions noted are these: foliage application after 14-day growth, evaluated three weeks after application. The gist of the method: as §1
Another test concerns chickweed. Kind of test: Test Example 5: herbicidal effect by foliage application, plastic box (Table 20, symbol P). The class given is in vivo, common chickweed (Stellaria media). To be noted: foliage application after 14-day growth, evaluated three weeks after application. The gist of the method:
as §1

The test system of the next test is rice flat sedge. The test is described as follows: Test Example 3: herbicidal effect by foliage application, Wagner pot (Table 18, symbol E). The class given is in vivo, rice flat sedge (Cyperus iria). To be noted: 320 g/ha. The gist of the method: as §2
The next test relates to Japanese bulrush. Kind of test: Test Example 1: herbicidal activity, application before weed generation under submerged conditions (Table 16, symbol B). The class given is in vivo, Japanese bulrush (Schoenoplectus juncoides). The conditions noted are these: amount of applied herbicide 320 g/ha. The gist of the method: (§3)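 Emulsion formulation, water-diluted to set dose, was put onto the flooded surface (4 cm depth, alluvial soil) the same day weeds were sown and 2.5-leaf rice transplanted. After 3 weeks at 25-30 °C under glass, each species was rated 0 (≤5% kill) to 5 (≥90% kill).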

The next test deals with lambsquarters. Kind of test: Test Example 5: herbicidal effect by foliage application, plastic box (Table 20, symbol O). The class given is in vivo, lambsquarters (Chenopodium album). The conditions noted are these: foliage application after 14-day growth, evaluated three weeks after application. The gist of the method: as §1
In a further test the test system is velvetleaf. Kind of test: Test Example 5: herbicidal effect by foliage application, plastic box (Table 20, symbol M). The class given is in vivo, velvetleaf (Abutilon theophrasti). The conditions noted are these: foliage application after 14-day growth, evaluated three weeks after application. The gist of the method: as §1
In test [2] the test system is barnyard grass. Kind of test: Test Example 5: herbicidal effect by foliage application, plastic box (Table 20, symbol H). The class given is in vivo, barnyard grass (Echinochloa crus-galli). The conditions noted are these: foliage application after 14-day growth, evaluated three weeks after application. The gist of the method: as §1
Another test has as its system oval-leafed pondweed. The test is described as follows: Test Example 1: herbicidal activity, application before weed generation under submerged conditions (Table 16, symbol C). The class given is in vivo, oval-leafed pondweed (Monochoria vaginalis). The conditions noted are these: amount of applied herbicide 320 g/ha. The gist of the method:
as §3

For the next test, the system named is late watergrass. Kind of test: Test Example 1: herbicidal activity, application before weed generation under submerged conditions (Table 16, symbol A). The class given is in vivo, late watergrass (Echinochloa oryzicola). To be noted: amount of applied herbicide 320 g/ha. The gist of the method:
as §3

The subject of a further test is green foxtail. Kind of test: Test Example 5: herbicidal effect by foliage application, plastic box (Table 20, symbol G). The class given is in vivo, green foxtail (Setaria viridis). To be noted: foliage application after 14-day growth, evaluated three weeks after application. The gist of the method: as §1
In the next test the test system is wild oat. The test is described as follows: Test Example 5: herbicidal effect by foliage application, plastic box (Table 20, symbol I). To be noted: foliage application after 14-day growth, evaluated three weeks after application. The class given is in vivo, wild oat (Avena fatua). The gist of the method:
as §1

The subject of the next test is redroot pigweed. The test is described as follows: Test Example 5: herbicidal effect by foliage application, plastic box (Table 20, symbol N). The class given is in vivo, redroot pigweed (Amaranthus retroflexus). The conditions noted are these: foliage application after 14-day growth, evaluated three weeks after application. The gist of the method:
as §1

Another test has as its system windgrass. Kind of test: Test Example 5: herbicidal effect by foliage application, plastic box (Table 20, symbol L). The class given is in vivo, windgrass (Apera spica-venti). The conditions noted are these: foliage application after 14-day growth, evaluated three weeks after application. The gist of the method: as §1
Another test relates to Italian ryegrass. The test is described as follows: Test Example 5: herbicidal effect by foliage application, plastic box (Table 20, symbol K). The class given is in vivo, Italian ryegrass (Lolium multiflorum). The conditions noted are these: foliage application after 14-day growth, evaluated three weeks after application. The gist of the method: as §1
For the next test, the system named is blackgrass. Kind of test: Test Example 5: herbicidal effect by foliage application, plastic box (Table 20, symbol J). The class given is in vivo, blackgrass (Alopecurus myosuroides). The conditions noted are these: foliage application after 14-day growth, evaluated three weeks after application. The gist of the method:
as §1

A further test has as its system Chinese sprangletop. The test is described as follows: Test Example 3: herbicidal effect by foliage application, Wagner pot (Table 18, symbol D). The class given is in vivo, chinese sprangletop (Leptochloa chinensis). To be noted: 320 g/ha. The gist of the method:
as §2

Setting [3] is: amount of applied herbicide 320 g/ha.

Take `COc1ccc(-c2sc3c(F)cccc3c2-c2c(O)c(C)nn(C)c2=O)cc1OC` [4-013]: the “herbicidal effect on F: southern crabgrass (evaluation grade 0-5)” value with southern crabgrass (320 g/ha) is 1 (Herbicidal rate of 5% or more and less than 20%). Also, in the test on barnyard grass [1], the “herbicidal effect on barnyard grass (H)” value is 3 (Herbicidal rate of 40% or more and less than 70%). Moreover, the “herbicidal effect on R: persian speedwell (evaluation grade 0-5)” value in the test with persian speedwell (320 g/ha) is 5 (Herbicidal rate of 90% or more (almost completely withered)). For the same molecule, the “herbicidal effect on P: chickweed (evaluation grade 0-5)” value in the test on chickweed (320 g/ha) is 5 (Herbicidal rate of 90% or more (almost completely withered)). For the same molecule, in the test with rice flat sedge, the “herbicidal effect on rice flat sedge (E)” value was 4 (Herbicidal rate of 70% or more and less than 90%). For the same molecule, the “Herbicidal effect, B: Japanese bulrush” value in the test with Japanese bulrush is 0 (Herbicidal rate of 5% or less (almost no effect)). For the same molecule, the “herbicidal effect on O: lambsquarters (evaluation grade 0-5)” value in the test on lambsquarters (320 g/ha) is recorded as 0 (Herbicidal rate of 5% or less (almost no effect)). In addition, the “herbicidal effect on M: velvetleaf (evaluation grade 0-5)” value with velvetleaf (320 g/ha) is 3 (Herbicidal rate of 40% or more and less than 70%). Moreover, the “herbicidal effect on H: barnyard grass (evaluation grade 0-5)” value with barnyard grass [2] (320 g/ha) is 1 (Herbicidal rate of 5% or more and less than 20%). The “Herbicidal effect, C: oval-leafed pondweed” value in the test with oval-leafed pondweed was 3 (Herbicidal rate of 40% or more and less than 70%). Also, in the test with late watergrass, the “Herbicidal effect, A: late watergrass” value was 3 (Herbicidal rate of 40% or more and less than 70%). Also, the “herbicidal effect on G: green foxtail (evaluation grade 0-5)” value with green foxtail (320 g/ha) is listed as 5 (Herbicidal rate of 90% or more (almost completely withered)). In addition, the “herbicidal effect on I: wild oat (evaluation grade 0-5)” value in the test with wild oat (320 g/ha) was 0 (Herbicidal rate of 5% or less (almost no effect)). Further, the “herbicidal effect on N: redroot pigweed (evaluation grade 0-5)” value in the test with redroot pigweed (320 g/ha) is given as 0 (Herbicidal rate of 5% or less (almost no effect)). In addition, the “herbicidal effect on L: windgrass (evaluation grade 0-5)” value in the test on windgrass (320 g/ha) is 0 (Herbicidal rate of 5% or less (almost no effect)). Also, in the test on Italian ryegrass (320 g/ha), the “herbicidal effect on K: Italian ryegrass (evaluation grade 0-5)” value was 4 (Herbicidal rate of 70% or more and less than 90%). Further, the “herbicidal effect on J: blackgrass (evaluation grade 0-5)” value in the test with blackgrass (320 g/ha) is 3 (Herbicidal rate of 40% or more and less than 70%). Also, the “herbicidal effect on Chinese sprangletop (D)” value in the test with Chinese sprangletop was 3 (Herbicidal rate of 40% or more and less than 70%).
`Cc1nn(C)c(=O)c(-c2c(-c3cccc4c3OCC4)sc3c(Cl)cccc23)c1O` [4-098]: the “Herbicidal effect by foliage application, F: southern crabgrass” value with southern crabgrass (setting [3]) is 3 (Herbicidal rate of 40% or more and less than 70%). In the test with barnyard grass [1], the “herbicidal effect on barnyard grass (H)” value is 4 (Herbicidal rate of 70% or more and less than 90%). Moreover, the “Herbicidal effect by foliage application, R: persian speedwell” value in the test with persian speedwell (setting [3]) is listed as 5 (Herbicidal rate of 90% or more (almost completely withered)). For the same molecule, the “Herbicidal effect by foliage application, P: chickweed” value in the test with chickweed (setting [3]) is 5 (Herbicidal rate of 90% or more (almost completely withered)). In addition, in the test on rice flat sedge, the “herbicidal effect on rice flat sedge (E)” value was 3 (Herbicidal rate of 40% or more and less than 70%). For the same molecule, the “Herbicidal effect, B: Japanese bulrush” value with Japanese bulrush is 0 (Herbicidal rate of 5% or less (almost no effect)). Further, the “Herbicidal effect by foliage application, O: lambsquarters” value in the test on lambsquarters (setting [3]) was 3 (Herbicidal rate of 40% or more and less than 70%). Besides, in the test on velvetleaf (setting [3]), the “Herbicidal effect by foliage application, M: velvetleaf” value is 3 (Herbicidal rate of 40% or more and less than 70%). Also, the “Herbicidal effect by foliage application, H: barnyard grass” value in the test with barnyard grass [2] (setting [3]) was 1 (Herbicidal rate of 5% or more and less than 20%). Also, the “Herbicidal effect, C: oval-leafed pondweed” value in the test on oval-leafed pondweed is recorded as 0 (Herbicidal rate of 5% or less (almost no effect)). In the test with late watergrass, the “Herbicidal effect, A: late watergrass” value is 3 (Herbicidal rate of 40% or more and less than 70%). In the test on green foxtail (setting [3]), the “Herbicidal effect by foliage application, G: green foxtail” value is 3 (Herbicidal rate of 40% or more and less than 70%). For the same molecule, the “Herbicidal effect by foliage application, I: wild oat” value with wild oat (setting [3]) is 0 (Herbicidal rate of 5% or less (almost no effect)). The “Herbicidal effect by foliage application, N: redroot pigweed” value with redroot pigweed (setting [3]) was 3 (Herbicidal rate of 40% or more and less than 70%). Further, the “Herbicidal effect by foliage application, L: windgrass” value with windgrass (setting [3]) is 2 (Herbicidal rate of 20% or more and less than 40%). Besides, the “Herbicidal effect by foliage application, K: Italian ryegrass” value in the test on Italian ryegrass (setting [3]) is recorded as 0 (Herbicidal rate of 5% or less (almost no effect)). The “Herbicidal effect by foliage application, J: blackgrass” value in the test with blackgrass (setting [3]) is reported as 0 (Herbicidal rate of 5% or less (almost no effect)). Further, the “herbicidal effect on Chinese sprangletop (D)” value in the test with Chinese sprangletop was 3 (Herbicidal rate of 40% or more and less than 70%).
